Experiment: Descaling efficiency for iron sulfide (FeS) at pH 3.8 as a function of temperature
Type: physicochemical
Settings: 20° C., 24 hours, FIG. 4
Experimental: The Parr bomb was placed in an oven at 90° C. The beaker glass was closed with parafilm. After 24 hours at temperature the samples were filtered by a 0.45 micron filter prior to ICP-ES analysis. The descaling efficiency was calculated from the iron concentration in the liquid and the initial amount of FeS.

descaling efficiency for FeS at low temperature: dissolved more FeS at low temperature
Compound: O=C([O-])CC[C@@H](C(=O)[O-])N(CC(=O)[O-])CC(=O)[O-].[Na+].[Na+].[Na+].[Na+] [sodium GLDA]

— patent US9587171B2, “Ammonium salts of chelating agents and their use in oil and gas field applications” (AKZO NOBEL CHEMICALS INTERNATIONAL B.V., priority 2010, dated 2017)
